Key:
[1] = tested on: mixture of 54 different pTyr-including peptides derived from 54 TK activation loops; assay: Capture of pTyr-including peptides from a mixture of TK activation loop peptides, scheduled PRM; format: binding
Experimental: Equal molar amounts (10 nmole) of the wild-type (wt) human Src SH2 domain and the DM and TrM human Src SH2 Superbinders (SEQ ID NO: 14 and 5, respectively) expressed with His6 and GST tags were used to capture pTyr-including peptides from a mixture of 54 different pTyr-including peptides (10 pmole each) derived from 54 TK activation loops. The isolated peptides were identified by PRM and quantified based on the corresponding MS peak area. 1.8% of the eluted peptides were injected into a Q-Exactive (Thermo Fisher) preceded with a nano-LC system.
Shown are the amounts of pTyr-including peptides captured, based on the corresponding peak area of PRM signal, by each of the parent human Src SH2 domain and the DM and TrM human Src SH2 Superbinders.

[2] = target: VEGFR1-pTyr^1213 peptide DVRpYVNAAKF; settings: peptide VEGFR1-pTyr^1213 DVRpYVNAAKF; read-out: equilibrium dissociation constant (Kd); cited from earlier work
[3] = target: EGFR-pTyr^978 peptide PQRpYLVIQGD; settings: peptide EGFR-pTyr^978 PQRpYLVIQGD; read-out: equilibrium dissociation constant (Kd); cited from earlier work
[4] = target: EGFR-pTyr^1110 peptide NPVpYHNQPLN; settings: peptide EGFR-pTyr^1110 NPVpYHNQPLN; read-out: equilibrium dissociation constant (Kd); cited from earlier work
[5] = target: MidT-pTyr^324 peptide EPQpYEEIPIYL; settings: peptide MidT-pTyr^324 EPQpYEEIPIYL; read-out: equilibrium dissociation constant (Kd); cited from earlier work
[6] = target: RSKL-pTyr^423 peptide YQHpYDLDLKD; settings: peptide RSKL-pTyr^423 YQHpYDLDLKD; read-out: equilibrium dissociation constant (Kd); cited from earlier work
[7] = target: ShcA-pTyr^239 peptide DHQpYYNDFPG; settings: peptide ShcA-pTyr^239 DHQpYYNDFPG; read-out: equilibrium dissociation constant (Kd); cited from earlier work
[8] = target: ShcA-pTyr^317 peptide DPSpYVNVQNL; settings: peptide ShcA-pTyr^317 DPSpYVNVQNL; read-out: equilibrium dissociation constant (Kd); cited from earlier work
Designed peptide GGpYGG = settings: read-out: equilibrium dissociation constant (Kd); cited from earlier work

For “Thr8Val/Cys10Ala: double-mutant human Src SH2 domain”, which “number of the 54 pTyr-including peptides captured / detected by PRM” value ([1]; 10 nmole SH2 domain, 10 pmole each peptide) is on record?
The value was 32.

And the “PRM signal peak area” value ([1]; BLK (pTyr389) IIDSEpYTAQEGAK, fragment ion b2)?
The value was 0.

And the “PRM signal peak area” value ([1]; BMX (pTyr566) YVLDDQpYVSSVGTK, fragment ion b2)?
The value was 0.

And the “PRM signal peak area” value ([1]; BTK (pTyr551) YVLDDEpYTSSVGSK, fragment ion b2)?
The value was 18,246.

What about the “PRM signal peak area” value ([1]; DDR1 (pTyr796/797) NLYAGDpYpYR, fragment ion b2) of the same substance?
The value was 43,173.

And the “PRM signal peak area” value ([1]; DDR2 (pTyr740/741) NLYSGDpYpYR, fragment ion y6)?
The value was 16,232.

What about the “PRM signal peak area” value ([1]; EPHA1 (pTyr781) LLDDFDGTpYETQGGK, fragment ion y9) of the same substance?
The value was 12,335.

And the “PRM signal peak area” value ([1]; EPHA2 (pTyr772) VLEDDPEATpYTTSGGK, fragment ion y11)?
The value was 4,858.

And the “PRM signal peak area” value ([1]; EPHA3 (pTyr779) VLEDDPEAApYTTR, fragment ion y8)?
The value was 0.

And the “PRM signal peak area” value ([1]; EPHA6 (pTyr830) VLEDDPEAApYTTTGGK, fragment ion b2)?
Its value is 51,066.

What about the “PRM signal peak area” value ([1]; EPHA8 (pTyr793) VLEDDPDAApYTTTGGK, fragment ion y11) of the same substance?
Its value is 57,102.

What about the “PRM signal peak area” value ([1]; EPHB1 (pTyr778) YLQDDTSDPTpYTSSLGGK, fragment ion y10) of the same substance?
Its value is 0.

And the “PRM signal peak area” value ([1]; EPHB2 (pTyr780) FLEDDTSDPTpYTSALGGK, fragment ion Y3)?
Its value is 98,045.

What about the “PRM signal peak area” value ([1]; EPHB3 (pTyr792) FLEDDPSDPTpYTSSLGGK, fragment ion y10) of the same substance?
Its value is 14,654.

And the “PRM signal peak area” value ([1]; EPHB4 (pTyr774) FLEENSSDPTpYTSSLGGK, fragment ion y10)?
The value was 0.

And the “PRM signal peak area” value ([1]; ERBB2 (pTyr877) LLDIDETEpYHADGGK, fragment ion b3)?
Its value is 4,642.

What about the “PRM signal peak area” value ([1]; ERBB3 (pTyr866) QLLpYSEAK, fragment ion y2) of the same substance?
The value was 151,587.

And the “PRM signal peak area” value ([1]; FER (pTyr714) QEDGGVpYSSSGLK, fragment ion y7)?
The value was 0.

And the “PRM signal peak area” value ([1]; FES (pTyr713) EEADGVpYAASGGLR, fragment ion y8)?
The value was 0.

And the “PRM signal peak area” value ([1]; FGFR1 (pTyr653/654) DIHHIDpYpYK, fragment ion b6)?
The value was 28,967.

And the “PRM signal peak area” value ([1]; FGFR2 (pTyr656/657) DINNIDpYpYK, fragment ion y4)?
Its value is 39,469.

And the “PRM signal peak area” value ([1]; FGFR3 (pTyr647/648) DVHNLDpYpYK, fragment ion b3)?
Its value is 64,641.

What about the “PRM signal peak area” value ([1]; FGFR4 (pTyr642/643) GVHHIDpYpYK, fragment ion b3) of the same substance?
Its value is 29,983.

What about the “PRM signal peak area” value ([1]; FRK (pTyr387) VDNEDIpYESR, fragment ion y6) of the same substance?
The value was 0.

And the “PRM signal peak area” value ([1]; GSK3 (pTyr279/216) GEPNVSpYICSR, fragment ion y6)?
Its value is 0.

And the “PRM signal peak area” value ([1]; HCK (pTyr411) VIEDNEpYTAR, fragment ion b2)?
The value was 0.

And the “PRM signal peak area” value ([1]; INSRR (pTyr1145/1146) DVYETDpYpYR, fragment ion y5)?
Its value is 7,794.

What about the “PRM signal peak area” value ([1]; ITK (pTyr512) FVLDDQpYTSSTGTK, fragment ion y11) of the same substance?
The value was 0.

What about the “PRM signal peak area” value ([1]; JAK1 (pTyr1034/1035) EpYpYTVK, fragment ion y2) of the same substance?
Its value is 46,193.

What about the “PRM signal peak area” value ([1]; JAK2 (pTyr221) IQDpYHILTR, fragment ion Y3) of the same substance?
Its value is 39,232.

And the “PRM signal peak area” value ([1]; JAK3 (pTyr980/981) DpYpYVVR, fragment ion y2)?
The value was 10,521.

What about the “PRM signal peak area” value ([1]; KIT (pTyr823) NDSNpYVVK, fragment ion b2) of the same substance?
The value was 0.

What about the “PRM signal peak area” value ([1]; LMTK2 (pTyr295) EDpYIETDDK, fragment ion b2) of the same substance?
The value was 1,124.

And the “PRM signal peak area” value ([1]; LMTK3 (pTyr296/297) EDpYpYLTPER, fragment ion y3)?
Its value is 78,610.

And the “PRM signal peak area” value ([1]; MERTK (pTyr753/754) IYSGDpYpYR, fragment ion b2)?
Its value is 0.

And the “PRM signal peak area” value ([1]; MET (pTyr1234/1235) EpYpYSVHNK, fragment ion y2)?
The value was 70,811.

What about the “PRM signal peak area” value ([1]; MUSK (pTyr755/756) NIYSADpYpYK, fragment ion y2) of the same substance?
The value was 0.

What about the “PRM signal peak area” value ([1]; NTRK1 (pTyr680/681) DIYSTDpYpYR, fragment ion b2) of the same substance?
The value was 30,204.

And the “PRM signal peak area” value ([1]; NTRK2 (pTyr706/707) DVYSTDpYpYR, fragment ion y4)?
The value was 22,794.

And the “PRM signal peak area” value ([1]; PGFRB (pTyr857) DSNpYISK, fragment ion y2)?
Its value is 0.

What about the “PRM signal peak area” value ([1]; PTK7 (pTyr960/961) DVYNSEpYpYHFR, fragment ion b2) of the same substance?
The value was 4,843.

And the “PRM signal peak area” value ([1]; RET (pTyr905) DVYEEDSpYVK, fragment ion b2)?
The value was 0.

What about the “PRM signal peak area” value ([1]; RON (pTyr1238/1239) EpYpYSVQQHR, fragment ion y4) of the same substance?
The value was 17,370.

And the “PRM signal peak area” value ([1]; ROR1 (pTyr645/646) EIYSADpYpYR, fragment ion y6)?
Its value is 27,661.

What about the “PRM signal peak area” value ([1]; ROR2 (pTyr645/646) EVYAADpYpYK, fragment ion y5) of the same substance?
Its value is 60,460.

What about the “PRM signal peak area” value ([1]; SRC (pTyr419) LIEDNEpYTAR, fragment ion b2) of the same substance?
Its value is 0.

And the “PRM signal peak area” value ([1]; SRMS (pTyr380) DDIpYSPSSSSK, fragment ion y8)?
Its value is 0.

And the “PRM signal peak area” value ([1]; TEC (pTyr519) YVLDDQpYTSSSGAK, fragment ion b2)?
Its value is 4,818.

What about the “PRM signal peak area” value ([1]; TIE1 (pTyr1007) GEEVpYVK, fragment ion b2) of the same substance?
Its value is 0.

And the “PRM signal peak area” value ([1]; TIE2 (pTyr992) GQEVpYVK, fragment ion b2)?
The value was 0.

And the “PRM signal peak area” value ([1]; TXK (pTyr420) YVLDDEpYVSSFGAK, fragment ion b2)?
Its value is 46,128.

What about the “PRM signal peak area” value ([1]; TYK2 (pTyr1054/1055) AVPEGHEpYpYR, fragment ion y6) of the same substance?
The value was 9,679.

What about the “PRM signal peak area” value ([1]; VGFR1 (pTyr1053) NPDpYVR, fragment ion y3) of the same substance?
Its value is 0.

And the “PRM signal peak area” value ([1]; VGFR2 (pTyr1059) DPDpYVR, fragment ion Y3)?
The value was 0.

What about the Kd [2] of the same substance?
The Kd was 1800 nM.

What about the Kd [3] of the same substance?
The Kd was 390 nM.

And the Kd [4]?
Its Kd is 4500 nM.

What about the Kd [5] of the same substance?
Its Kd is 27 nM.

And the Kd [6]?
Its Kd is 900 nM.

What about the Kd [7] of the same substance?
The Kd was 100 nM.

What about the Kd [8] of the same substance?
The Kd was 390 nM.

What about the Kd (Designed peptide GGpYGG) of the same substance?
The Kd was 25000 nM.
